Columns and labels:
[1] = system: larvae of mosquitoes Culex pipiens resistant to propoxur; assay: Insecticidal activity: larval mortality, propoxur-resistant larvae; format: in vivo; settings: for LC50: Culex pipiens, stage-4 larvae, mortality after 24 hours, log-Probit, read-out: LD50, Resistant larvae; for Sensitive/resistant ratio: LD50 larval mortality, sensitive relative to resistant
Description: (§1) The insecticidal activity of the compounds according to the invention denoted in table IV below is tested on larvae of mosquitoes Culex pipiens sensitive or resistant to the action of propoxur.
(§2) The larvae resistant or sensitive to propoxur are incubated in 24-well plates, at the rate of 15 stage-4 larvae per well, in 1 ml of tap water comprising different concentrations of compounds ranging from 0.31 to 50 μg/ml.
(§3) Larval mortality is measured after incubating for 24 hours. […] Cahiers ORSTOM, série Entomologie médicale et Parasitologie, 23(2), 117-121; Raymond, M., Prato, G. and Ratsira, D. (1993). PROBIT, CNRS-UMII, Licence L93019. Avenix, 34680 St. Georges d'Orques, France.), the homogeneity of the dose/response being tested. The effectiveness of the different compounds with regard to the resistant larvae, relative to the sensitive larvae, is estimated by the sensitive/resistant ratio.

[2] = system: larvae of mosquitoes Culex pipiens sensitive to propoxur; assay: Insecticidal activity: larval mortality, propoxur-sensitive larvae; format: in vivo; settings: stage-4 larvae, mortality after 24 hours, log-Probit, read-out: LD50, Sensitive larvae
Description: as §1, §2, §3

[3] = target: T1, G119S-mutated recombinant Culex pipiens AChE1 (Culex pipiens, UniProt Q86GC8, G247S); assay: biochemical
T1 construct: made in house; host or cells: Drosophila S2 cells (crude lysate supernatant)
Description: (§4) The inhibitory properties of the compounds of the preceding table I are tested with regard to the AChE activity by either using a normal or G119S-mutated recombinant AChE or using extracts of larvae of mosquitoes which are sensitive (carrying normal AChE) or resistant (carrying G119S-mutated AChE) to organophosphorus compounds and carbamates.
(§5) The AChE activity is measured using the method described by Bourguet et al., Pest Biochem. Physiol., 1996, 55, 122-128, and which refers to the spectroscopic method described by Ellman G. L. et al. (Biochem. Pharmacol., 1961, 7, 88-95) using acetylthiocholine as substrate.
(§6) The inhibitory properties of the compounds according to the invention with regard to the activity of a G119S-mutated or normal recombinant Culex pipiens AChE1 are tested according to protocol described by Weill et al., Nature, 2003, 423, 136-137.
(§7) Each compound according to the invention is tested at different concentrations on lysates of Drosophile S2 cells transfected with an empty expression vector or an expression vector expressing normal or mutated AChE1. After expression, the cells are centrifuged for 15 minutes at 14 000 rpm and are subsequently lysed in a 0.25 M phosphate buffer comprising 1% Triton X100.
(§8) 100 μl of supernatant originating from the centrifuging of the cell lysates at 10 000 rpm for 3 minutes are incubated for 15 minutes with 10 μl of each compound according to the invention at various concentrations.
(§9) The effectiveness of the various compounds with regard to the mutated AChE activity, relative to that of the normal AChE, is estimated by the sensitive/insensitive ratio.

[4] = system: G119S-mutated recombinant Culex pipiens AChE1; assay: biochemical; settings: IC50 normal AChE1 relative to mutated AChE1, recombinant
Description: as §4, §5, §6, §7, §8, §9

[5] = target: T2, normal recombinant Culex pipiens AChE1 (Culex pipiens, UniProt Q86GC8); assay: Inhibition of normal recombinant AChE1 (lysates of transfected Drosophile S2 cells, Ellman method); format: biochemical
T2 construct: made in house; host or cells: Drosophila S2 cells (crude lysate supernatant)
Description: as §4, §5, §6, §7, §8, §9

[6] = target: T3, AChE1 activity of extracts of Culex pipiens larvae sensitive to propoxur (normal AChE) (Culex pipiens, UniProt Q86GC8); assay: Inhibition of AChE1 activity in extracts of propoxur-sensitive mosquito larvae; format: biochemical; settings: extracts of propoxur-sensitive larvae, 15 minutes incubation; read-out: IC50, Sensitive larvae
T3 construct: from tissue; host or cells: whole larvae of propoxur-sensitive Culex pipiens, Triton X100 homogenate supernatant
Description: as §4, §5
(§10) Larvae of Culex pipiens mosquitoes which are sensitive or resistant to propoxur are milled in 400 μl of 0.25M phosphate buffer comprising 1% Triton X100. The homogenates are centrifuged at 10 000 rpm for 3 minutes.
(§11) The effectiveness of the various compounds with regard to the resistant larvae, relative to the sensitive larvae, is estimated by the sensitive/resistant ratio.

[7] = system: AChE1 activity of extracts of Culex pipiens larvae resistant to propoxur (G119S-mutated AChE); assay: biochemical; settings: IC50 on larval extracts, sensitive relative to resistant
Description: as §4, §5, §10, §11

[8] = target: T4, AChE1 activity of extracts of Culex pipiens larvae resistant to propoxur (G119S-mutated AChE) (Culex pipiens, UniProt Q86GC8, G247S); assay: biochemical
T4 construct: from tissue; host or cells: whole larvae of propoxur-resistant Culex pipiens, Triton X100 homogenate supernatant
Description: as §4, §5, §10, §11

SMILES | LC50 [1] | Sensitive/resistant ratio [1] | LC50 [2] | IC50 [3] | Sensitive/insensitive ratio [4] | IC50 [5] | IC50 [6] | Sensitive/resistant ratio [7] | IC50 [8]
COc1cccc(N2C(=O)NC(=O)C(=Cc3ccc(C)s3)C2=O)c1 [(3), 1-(3-methoxyphenyl)-5-[(5-methyl-2-thienyl)methylene]-2,4,6(1H,3H,5H)-pyrimidinetrione] | 122 µM | 3.2 | 389 µM | 62 µM | 1.65 | 102 µM | 118 µM | 3.5 | 33 µM
Cc1ccc(C=C2C(=O)NC(=O)N(c3ccccc3)C2=O)o1 [(1), 5-[(5-methyl-2-furyl)methylene]-1-phenyl-2,4,6(1H,3H,5H)-pyrimidinetrione] | 143 µM | 2.2 | 310 µM | 23 µM | 1.47 | 34 µM | 29.4 µM | 4.7 | 6.2 µM
Cc1cccc(N2C(=O)NC(=O)C(=Cc3ccc(C)s3)C2=O)c1 [(2), 1-(3-methylphenyl)-5-[(5-methyl-2-thienyl)methylene]-2,4,6(1H,3H,5H)-pyrimidinetrione] | 170 µM | 2.7 | 455 µM | 43 µM | 0.90 | 39 µM | 442 µM | 15.5 | 28 µM

From patent US8309556B2, “Use of compounds derived from pyrimidinetrione as acetyl cholinesterase inhibitors, compositions containing said derivatives, and the uses thereof” (priority 2005, dated 2012)
